Experimental data reported in patent publication US20260022142A1, “MACROCYCLIC IMMUNOMODULATORS” (Bristol-Myers Squibb Company, priority 2022, published 2026).
Numbered stars: 1 amine (or outer) side, 2 acyl side, 3 side chain; on linkers, the order of the positions; unused ones are H or OH. Bridge positions count the residues as written; N and C are the ends. Square brackets hold non-standard residues; d marks the D form. Peptide text beside a SMILES is read from it. * marks the point of attachment. ξ: configuration not given here. Bip = N[C@@H](Cc1ccc(-c2ccccc2)cc1)C(=O)O; Phe(3-Me) = Cc1cccc(C[C@H](N)C(=O)O)c1; γGlu = O=C(O)[C@H](CCC(=O)[*:2])N[*:1]; Val(3-OH) = CC(C)(O)[C@H](N)C(=O)O; Cha = N[C@@H](CC1CCCCC1)C(=O)O; Thr(3ξ) = CC(O)[C@H](N)C(=O)O; 12Ado = NCCCCCCCCCCCC(=O)O; Carboxymethyl = O=C(O)C*; Orn = NCCC[C@H](N)C(=O)O; Aun = NCCCCCCCCCCC(=O)O; Dab = NCC[C@H](N)C(=O)O; Dap = NC[C@H](N)C(=O)O; AEEA = NCCOCCOCC(=O)O

Target: T1, PD-1/PD-L1 interaction (PE-labeled human PD-L1-Ig binding to Jurkat cell line over-expressing human PD-1) (Homo sapiens, UniProt Q15116)
T1 construct: expressed in transfected cells; host or cells: Jurkat
Test: Jurkat-PD-1 Cell Binding High-Content Screening Assay (CBA)
Format: cell-based
Conditions: Jurkat cell line over-expressing human PD-1; PE-labeled PD-L1-Ig 20 nM final; read-out: Jurkat hPD1-PDL1 IC50
How it was run: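 Read-out is high-content imaging of cell-bound phycoerythrin-tagged PD-L1-Ig on fixed, Hoechst-counterstained Jurkat cells that over-express human PD-1. Compound exposure lasts 2 h at 37° C before the labeled ligand (20 nM final) is added for a further hour.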

T1 sequence (Q15116 25-288): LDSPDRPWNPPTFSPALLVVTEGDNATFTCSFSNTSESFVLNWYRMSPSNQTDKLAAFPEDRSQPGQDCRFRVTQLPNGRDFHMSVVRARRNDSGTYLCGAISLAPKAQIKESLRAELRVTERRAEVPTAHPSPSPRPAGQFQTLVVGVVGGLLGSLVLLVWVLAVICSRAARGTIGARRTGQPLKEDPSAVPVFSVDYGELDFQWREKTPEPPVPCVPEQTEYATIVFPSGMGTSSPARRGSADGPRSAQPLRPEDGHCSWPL

SMILES | IC50 [nM]
CC(=O)NCCCC[C@@H]1NC(=O)[C@H](Cc2ccc(-c3ccccc3)cc2)NC(=O)[C@H](CCNC(C)=O)NC(=O)[C@H](Cc2cccc(C)c2)NC(=O)[C@H](CC(=O)O)NC(=O)[C@H](Cc2ccc(OCC(=O)O)cc2)NC(=O)[C@H](Cc2ccc(OCC(=O)O)cc2)NC(=O)CSC[C@@H](C(=O)N[C@@H](CCN)C(=O)N[C@@H](CO)C(=O)NCCCCCCCCCCCC(=O)O)NC(=O)[C@H](Cc2cnc[nH]2)NC(=O)[C@H](C(C)O)NC(=O)[C@H](CC2CCCCC2)NC(=O)[C@H](CCN)NC(=O)[C@@H](CC(C)C)NC(=O)[C@H](CCCN)NC1=O (stereo partly drawn) [Compound 3646] ({CH2CO}-Y(Carboxymethyl)Y(Carboxymethyl)D[Phe(3-Me)][Dab](Ac)[Bip]K(Ac)[Orn][dL][Dab][Cha][Thr(3ξ)]HC[Dab]S[12Ado]-OH; thioether N-14) | 94.7
CC(C)C[C@H]1NC(=O)[C@H](CCCN)NC(=O)[C@H](C(C)C)NC(=O)[C@H](Cc2ccc(-c3ccccc3)cc2)NC(=O)[C@H](C(C)C)NC(=O)[C@H](Cc2c[nH]c3ccccc23)NC(=O)[C@H](CC(=O)O)NC(=O)[C@H](Cc2ccc(OCC(=O)O)cc2)NC(=O)[C@H](CN)NC(=O)CSC[C@@H](C(=O)N[C@@H](CCN)C(=O)NCCCCCCCCCCC(=O)O)NC(=O)[C@H](CN)NC(=O)[C@H](C(C)O)NC(=O)[C@H](CC2CCCCC2)NC(=O)[C@H](CCN)NC1=O (stereo partly drawn) [Compound 3647] ({CH2CO}-[Dap]Y(Carboxymethyl)DWV[Bip]V[Orn][dL][Dab][Cha][Thr(3ξ)][Dap]C[Dab][Aun]-OH; thioether N-14) | 27.7
CC(C)C[C@H]1NC(=O)[C@H](CCCN)NC(=O)[C@H](C(C)C)NC(=O)[C@H](Cc2ccc(-c3ccccc3)cc2)NC(=O)[C@H](C(C)C)NC(=O)[C@H](Cc2c[nH]c3ccccc23)NC(=O)[C@H](CC(=O)O)NC(=O)[C@H](Cc2ccc(OCC(=O)O)cc2)NC(=O)[C@H](CN)NC(=O)CSC[C@@H](C(=O)N[C@@H](CCN)C(=O)NCCCCCCCCCCC(=O)O)NC(=O)[C@H](CCCCN)NC(=O)[C@H](C(C)O)NC(=O)[C@H](CC2CCCCC2)NC(=O)[C@H](CCN)NC1=O (stereo partly drawn) [Compound 3648] ({CH2CO}-[Dap]Y(Carboxymethyl)DWV[Bip]V[Orn][dL][Dab][Cha][Thr(3ξ)]KC[Dab][Aun]-OH; thioether N-14) | 21.5
CC(C)C[C@H]1NC(=O)[C@H](CCCN)NC(=O)[C@H](C(C)C)NC(=O)[C@H](Cc2ccc(-c3ccccc3)cc2)NC(=O)[C@H](C(C)C)NC(=O)[C@H](Cc2c[nH]c3ccccc23)NC(=O)[C@H](CC(=O)O)NC(=O)[C@H](Cc2ccc(OCC(=O)O)cc2)NC(=O)[C@H](CN)NC(=O)CSC[C@@H](C(=O)N[C@@H](CCN)C(=O)NCCCCCCCCCCC(=O)O)NC(=O)[C@H](CO)NC(=O)[C@H](C(C)O)NC(=O)[C@H](CC2CCCCC2)NC(=O)[C@H](CCN)NC1=O (stereo partly drawn) [Compound 3651] ({CH2CO}-[Dap]Y(Carboxymethyl)DWV[Bip]V[Orn][dL][Dab][Cha][Thr(3ξ)]SC[Dab][Aun]-OH; thioether N-14) | 24.1
CC(C)C[C@H]1NC(=O)[C@H](CCCN)NC(=O)[C@H](C(C)C)NC(=O)[C@H](Cc2ccc(-c3ccccc3)cc2)NC(=O)[C@H](C(C)C)NC(=O)[C@H](Cc2c[nH]c3ccccc23)NC(=O)[C@H](CC(=O)O)NC(=O)[C@H](Cc2ccc(OCC(=O)O)cc2)NC(=O)[C@H](CN)NC(=O)CSC[C@@H](C(=O)N[C@@H](CCN)C(=O)NCCCCCCCCCCC(=O)O)NC(=O)[C@H](Cc2cnc[nH]2)NC(=O)[C@H](C(C)O)NC(=O)[C@H](CC2CCCCC2)NC(=O)[C@H](CCN)NC1=O (stereo partly drawn) [Compound 3652] ({CH2CO}-[Dap]Y(Carboxymethyl)DWV[Bip]V[Orn][dL][Dab][Cha][Thr(3ξ)]HC[Dab][Aun]-OH; thioether N-14) | 22.1
CC(C)C[C@H]1NC(=O)[C@H](CCCN)NC(=O)[C@H](Cc2ccc(O)cc2)NC(=O)[C@H](Cc2ccc(-c3ccccc3)cc2)NC(=O)[C@H](C(C)C)NC(=O)[C@H](Cc2c[nH]c3ccccc23)NC(=O)[C@H](CC(=O)O)NC(=O)[C@H](Cc2ccc(OCC(=O)O)cc2)NC(=O)[C@H](CN)NC(=O)CSC[C@@H](C(=O)N[C@@H](CCN)C(=O)NCCCCCCCCCCC(=O)O)NC(=O)[C@H](CN)NC(=O)[C@H](C(C)O)NC(=O)[C@H](CC2CCCCC2)NC(=O)[C@H](CCN)NC1=O (stereo partly drawn) [Compound 3654] ({CH2CO}-[Dap]Y(Carboxymethyl)DWV[Bip]Y[Orn][dL][Dab][Cha][Thr(3ξ)][Dap]C[Dab][Aun]-OH; thioether N-14) | 45.1
CC(C)C[C@H]1NC(=O)[C@H](CCCN)NC(=O)[C@H](Cc2ccc(O)cc2)NC(=O)[C@H](Cc2ccc(-c3ccccc3)cc2)NC(=O)[C@H](C(C)C)NC(=O)[C@H](Cc2c[nH]c3ccccc23)NC(=O)[C@H](CC(=O)O)NC(=O)[C@H](Cc2ccc(OCC(=O)O)cc2)NC(=O)[C@H](CN)NC(=O)CSC[C@@H](C(=O)N[C@@H](CCN)C(=O)NCCCCCCCCCCC(=O)O)NC(=O)[C@H](CCCCN)NC(=O)[C@H](C(C)O)NC(=O)[C@H](CC2CCCCC2)NC(=O)[C@H](CCN)NC1=O (stereo partly drawn) [Compound 3655] ({CH2CO}-[Dap]Y(Carboxymethyl)DWV[Bip]Y[Orn][dL][Dab][Cha][Thr(3ξ)]KC[Dab][Aun]-OH; thioether N-14) | 61.8
CC(C)C[C@H]1NC(=O)[C@H](CCCN)NC(=O)[C@H](Cc2ccc(O)cc2)NC(=O)[C@H](Cc2ccc(-c3ccccc3)cc2)NC(=O)[C@H](Cc2ccc(O)cc2)NC(=O)[C@H](Cc2c[nH]c3ccccc23)NC(=O)[C@H](CC(=O)O)NC(=O)[C@H](Cc2ccc(OCC(=O)O)cc2)NC(=O)[C@H](CN)NC(=O)CSC[C@@H](C(=O)N[C@@H](CCN)C(=O)NCCCCCCCCCCC(=O)O)NC(=O)[C@H](CN)NC(=O)[C@H](C(C)O)NC(=O)[C@H](CC2CCCCC2)NC(=O)[C@H](CCN)NC1=O (stereo partly drawn) [Compound 3656] ({CH2CO}-[Dap]Y(Carboxymethyl)DWY[Bip]Y[Orn][dL][Dab][Cha][Thr(3ξ)][Dap]C[Dab][Aun]-OH; thioether N-14) | 178

Stronger by IC50, values ahead:

IC50 [nM] | SMILES
7.4 | Cc1cccc(C[C@@H]2NC(=O)[C@H](CC(=O)O)NC(=O)[C@H](Cc3ccc(OCC(=O)O)cc3)NC(=O)[C@H](CCN)NC(=O)CSC[C@@H](C(=O)N[C@@H](CCN)C(=O)NCCCCCCCCCCC(=O)O)NC(=O)[C@H](CO)NC(=O)[C@H](C(C)(C)O)NC(=O)[C@H](CC3CCCCC3)NC(=O)[C@H](Cc3cnc[nH]3)NC(=O)[C@@H](CC(C)C)NC(=O)[C@H](CCCN)NC(=O)[C@H](Cc3ccc(OCC(=O)O)cc3)NC(=O)[C@H](Cc3ccc(-c4ccccc4)cc3)NC(=O)[C@H](Cc3ccc(OCC(=O)O)cc3)NC2=O)c1 [Compound 3641] ({CH2CO}-[Dab]Y(Carboxymethyl)D[Phe(3-Me)]Y(Carboxymethyl)[Bip]Y(Carboxymethyl)[Orn][dL]H[Cha][Val(3-OH)]SC[Dab][Aun]-OH; thioether N-14)
6.8 | Cc1cccc(C[C@@H]2NC(=O)[C@H](CC(=O)O)NC(=O)[C@H](Cc3ccc(OCC(=O)O)cc3)NC(=O)[C@H](CCN)NC(=O)CSC[C@@H](C(=O)N[C@@H](CC(N)=O)C(=O)NCCCCCCCCCCC(=O)O)NC(=O)[C@H](Cc3cnc[nH]3)NC(=O)[C@H](C(C)O)NC(=O)[C@H](CC3CCCCC3)NC(=O)[C@H](CCN)NC(=O)[C@@H](CC(C)C)NC(=O)[C@H](CCCN)NC(=O)[C@H](Cc3ccc(OCC(=O)O)cc3)NC(=O)[C@H](Cc3ccc(-c4ccccc4)cc3)NC(=O)[C@H](Cc3ccc(OCC(=O)O)cc3)NC2=O)c1 (stereo partly drawn) [Compound 3642] ({CH2CO}-[Dab]Y(Carboxymethyl)D[Phe(3-Me)]Y(Carboxymethyl)[Bip]Y(Carboxymethyl)[Orn][dL][Dab][Cha][Thr(3ξ)]HCN[Aun]-OH; thioether N-14)
18.8 | CC(=O)NCCCC[C@@H]1NC(=O)[C@H](Cc2ccc(-c3ccccc3)cc2)NC(=O)[C@H](Cc2ccc(OCC(=O)O)cc2)NC(=O)[C@H](Cc2cccc(C)c2)NC(=O)[C@H](CC(=O)O)NC(=O)[C@H](Cc2ccc(OCC(=O)O)cc2)NC(=O)[C@H](CCN)NC(=O)CSC[C@@H](C(=O)N[C@@H](CCN)C(=O)N[C@@H](CO)C(=O)NCCCCCCCCCCC(=O)O)NC(=O)[C@H](CO)NC(=O)[C@H](C(C)(C)O)NC(=O)[C@H](CC2CCCCC2)NC(=O)[C@H](CCN)NC(=O)[C@@H](CC(C)C)NC(=O)[C@H](CCCN)NC1=O [Compound 3644] ({CH2CO}-[Dab]Y(Carboxymethyl)D[Phe(3-Me)]Y(Carboxymethyl)[Bip]K(Ac)[Orn][dL][Dab][Cha][Val(3-OH)]SC[Dab]S[Aun]-OH; thioether N-14)
7.5 | CC(C)C[C@H]1NC(=O)[C@H](CCCN)NC(=O)[C@H](C(C)C)NC(=O)[C@H](Cc2ccc(-c3ccccc3)cc2)NC(=O)[C@H](C(C)C)NC(=O)[C@H](Cc2c[nH]c3ccccc23)NC(=O)[C@H](CC(=O)O)NC(=O)[C@H](Cc2ccc(OCC(=O)O)cc2)NC(=O)[C@H](CN)NC(=O)CSC[C@@H](C(=O)N[C@@H](CCN)C(=O)NCCOCCOCC(=O)N[C@@H](CCC(=O)NCCCCCCCCCCC(=O)O)C(=O)O)NC(=O)[C@H](CN)NC(=O)[C@H](C(C)O)NC(=O)[C@H](CC2CCCCC2)NC(=O)[C@H](CCN)NC1=O (stereo partly drawn) [Compound 3649] ({CH2CO}-[Dap]Y(Carboxymethyl)DWV[Bip]V[Orn][dL][Dab][Cha][Thr(3ξ)][Dap]C[Dab][AEEA][γGlu][Aun]-OH; thioether N-14)
17.5 | CC(C)C[C@H]1NC(=O)[C@H](CCCN)NC(=O)[C@H](C(C)C)NC(=O)[C@H](Cc2ccc(-c3ccccc3)cc2)NC(=O)[C@H](C(C)C)NC(=O)[C@H](Cc2c[nH]c3ccccc23)NC(=O)[C@H](CC(=O)O)NC(=O)[C@H](Cc2ccc(OCC(=O)O)cc2)NC(=O)[C@H](CN)NC(=O)CSC[C@@H](C(=O)N[C@@H](CCN)C(=O)NCCOCCOCC(=O)N[C@@H](CCC(=O)NCCCCCCCCCCC(=O)O)C(=O)O)NC(=O)[C@H](CCCCN)NC(=O)[C@H](C(C)O)NC(=O)[C@H](CC2CCCCC2)NC(=O)[C@H](CCN)NC1=O (stereo partly drawn) [Compound 3650] ({CH2CO}-[Dap]Y(Carboxymethyl)DWV[Bip]V[Orn][dL][Dab][Cha][Thr(3ξ)]KC[Dab][AEEA][γGlu][Aun]-OH; thioether N-14)
